Results taken from US9849131B2 (AUTIFONY THERAPEUTICS LIMITED, priority 2009, dated 2017).

Tests used:
Male CD-1 mice = assay: Psychostimulant (amphetamine)-induced hyperactivity in mice (Example 93); conditions: mouse
hKv3.2 = target: T1, hKv3.2 (Homo sapiens, UniProt Q96PR1); assay: IonWorks Quattro assay, secondary analysis of activation time constant (Tauact); format: cell-based; conditions: for acts as positive or negative modulator of Kv3.1 and/or Kv3.2: classification from effect on Tauact; for effect on the value of Tauact compared to the vehicle control: vehicle DMSO 0.5%
T1 construct: expressed in transfected cells; host or cells: CHO-K1
T1 sequence (Q96PR1 1-638): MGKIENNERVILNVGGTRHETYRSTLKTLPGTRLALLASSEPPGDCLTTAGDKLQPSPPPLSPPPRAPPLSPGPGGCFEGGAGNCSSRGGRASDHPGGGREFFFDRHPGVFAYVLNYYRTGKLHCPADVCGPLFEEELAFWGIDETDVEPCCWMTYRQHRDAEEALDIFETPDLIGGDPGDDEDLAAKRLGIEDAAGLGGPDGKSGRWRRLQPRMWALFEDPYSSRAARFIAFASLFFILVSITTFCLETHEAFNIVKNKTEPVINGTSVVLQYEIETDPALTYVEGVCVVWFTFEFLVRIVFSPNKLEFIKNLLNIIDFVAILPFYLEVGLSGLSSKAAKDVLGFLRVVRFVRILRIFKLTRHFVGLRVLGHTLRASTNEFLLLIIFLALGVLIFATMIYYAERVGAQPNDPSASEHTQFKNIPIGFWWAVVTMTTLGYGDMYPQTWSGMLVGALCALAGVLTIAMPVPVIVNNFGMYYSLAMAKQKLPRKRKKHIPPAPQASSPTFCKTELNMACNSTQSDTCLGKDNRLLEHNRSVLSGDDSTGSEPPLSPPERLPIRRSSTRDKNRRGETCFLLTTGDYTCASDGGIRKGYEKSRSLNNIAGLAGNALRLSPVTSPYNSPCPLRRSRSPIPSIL
Procedure: A stable cell line expressing human Kv3.2 channels (hKv3.2) was created by transfecting Chinese Hamster Ovary (CHO)-K1 cells with a pCIH5-hKv3.2 vector. Cells were cultured in DMEM/F12 medium supplemented by 10% Foetal Bovine Serum, 1× non-essential amino acids (Invitrogen) and 500 ug/ml of Hygromycin-B (Invitrogen). Cells were grown and maintained at 37° C. in a humidified environment containing 5% CO2 in air.
The day of the experiment, cells were removed from the incubator and the culture medium removed. Cells were washed with 5 ml of Dulbecco's PBS (DPBS) calcium and magnesium free and detached by the addition of 3 ml Versene (Invitrogen, Italy) followed by a brief incubation at 37° C. for 5 minutes. The flask was tapped to dislodge cells and 10 ml of DPBS containing calcium and magnesium was added to prepare a cell suspension. The cell suspension was then placed into a 15 ml centrifuge tube and centrifuged for 2 min at 1200 rpm. After centrifugation, the supernatant was removed and the cell pellet re-suspended in 4 ml of DPBS containing calcium and magnesium using a 5 ml pipette to break […] up the pellet. Cell suspension volume was then corrected to give a cell concentration for the assay of approximately 3 million cells per ml.
Experiments were conducted at room temperature using IonWorks Quattro™ planar array electrophysiology technology (Molecular Devices Corp.) with PatchPlate™ PPC. Stimulation protocols and data acquisition were carried out using a microcomputer (Dell Pentium 4). Planar electrode hole resistances (Rp) were determined by applying a 10 mV voltage step across each well. These measurements were performed before cell addition. […] Following this, amphotericin-B solution was added to the intracellular face of the electrode to achieve intracellular access. Cells were held at −70 mV. Leak subtraction was conducted in all experiments by applying 50 ms hyperpolarizing (10 mV) prepulses to evoke leak currents followed by a 20 ms period at the holding potential before test pulses. From the holding potential of −70 mV, a first test pulse to −15 mV was applied for 100 ms and following a further 100 ms at −70 mV, a second pulse to 40 mV was applied for 50 ms. Cells were then maintained for a further 100 ms at −100 mV and then a voltage ramp from −100 mV to 40 mV was applied over 200 ms. In all experiments, the test pulses protocol was performed in the absence (pre-read) and presence (post-read) of the test compound. Pre- and post-reads were separated by the compound addition followed by a 3 minute incubation.
The magnitude of the effect of a compound can be determined from the time constant (Tauact) obtained from a non-linear fit, using the equation given below, of the rise in Kv3.1 or Kv3.2 currents following the start of the depolarising voltage pulse. Y=(Y0−Ymax)*exp(−K*X)+Ymax
Where: • Y0 is the current value at the start of the depolarising voltage pulse; • Ymax is the plateau current;
K is the rate constant, and Tauact is the activation time constant, which is the reciprocal of K.

[1] = system: fast-firing interneurons in the somatosensory cortex; assay: Recordings from fast-firing interneurons driven by high frequency current pulse trains (FIG. 2); format: cell-based, mouse; conditions: 1 microM; trains of depolarising current pulses at 100, 200, 300 Hz; n=6
Excerpt: Kv3.1 and Kv3.2 channels must activate and deactivate very rapidly in order to allow neurons to fire actions potentials at high frequency (Rudy and McBain, 2001, Trends in Neurosciences 24, 517-526). Slowing of activation will delay the onset of action potential repolarisation; slowing of deactivation will lead to hyperpolarising currents that reduce the excitability of the neuron and delay the time before the neuron can fire a further action potential. Together these two slowing effects will lead to a reduction rather than a facilitation of the neurons ability to fire at high frequencies. […] This latter effect can be observed from recordings made from “fast-firing” interneurons in the cortex of rat brain, using electrophysiological techniques, in vitro (FIG. 2).
The neurons are induced to fire at high frequencies by trains of high frequency depolarising current pulses at 100, 200, and 300 Hz. The ability of the neuron to fire an action potential on each pulse is determined. […] In the absence of drug (closed circles, n=9), the neurons maintained a spike probability of 1 up to 300 Hz.

[2] = system: parvalbumin-positive interneurons in the somatosensory cortex; assay: Firing of parvalbumin-positive interneurons in somatosensory cortex slices, in vitro (Example 90); format: cell-based, mouse; conditions: TEA 0.5 mM vs control slices; at least 1 hour incubation
[3] = system: high voltage-activated potassium currents in MNTB neurons (presumed to be mediated by Kv3.1 channels); assay: Potassium currents recorded from MNTB neurons, in vitro (Example 91); format: cell-based, mouse; conditions: TEA 1 mM; voltage steps to +40 mV
Procedure: Male CBA/Ca mice (aged 12-16 days) were used in these experiments (in accordance with the UK Animals Scientific Procedures Act, 1986). Brain slices containing the medial nucleus of the trapezoid body (MNTB) were prepared as described previously (Brew and Forsythe, 2005).
Chemicals and reagents were purchased from Sigma, (Poole, UK) unless otherwise noted. EXAMPLE 19 was dissolved in DMSO and diluted in ACSF to the required concentration.
Recordings from identified MNTB neurons were conducted as previously described (Brew and Forsythe, 2005). Slices was placed in a superfusion chamber on an inverted microscope stage and continuously perfused with gassed (95% O2-5% CO2) ACSF at a rate of 1 ml min^−1 at room temperature. Whole-cell recordings were made from visually identified MNTB neurons using an […] amplifier (Molecular Devices, Union City, Calif., USA). Patch solution comprised (in mM) potassium gluconate (97.5), KCl (32.5), Hepes (40), EGTA (5), MgCl2 (1), Na2 phosphocreatin (5), pH 7.2 with KOH. Pipettes had resistances of 3-5 MΩ and series resistances were 6-10 MΩ (compensated by 70%, 10 μs lag). Access resistance was frequently monitored and the recording discarded if increases were more than 2 MΩ. […]

| SMILES | acts as positive or negative modulator of Kv3.1 and/or Kv3.2 (hKv3.2) | also measured |
| --- | --- | --- |
| CC(N)Cc1ccccc1 (stereo not shown) [Amphetamine, amphetamine, reference compound] |  | Total Distance Travelled (cm) (Male CD-1 mice; amphetamine 2.0 mg/kg i.p. alone, 60 minutes, mean ± sem): 16304 ± 3309 cm; effect on total distance travelled (Male CD-1 mice; amphetamine alone 2 mg/kg i.p.): large and significant increase |
| CC[C@@]1(C)NC(=O)N(c2ccc(Oc3ccc(C)c(OC)c3)nc2)C1=O [Example 30, (5R)-5-ethyl-5-methyl-3-(6-{[4-methyl-3-(methyloxy)phenyl]oxy}-3-pyridinyl)-2,4-imidazolidinedione] | positive modulators |  |
| CC[C@H]1NC(=O)N(c2ccc(Oc3ccc(C#N)cc3C3CC3)nc2)C1=O [Example 70, 3-cyclopropyl-4-({5-[(4R)-4-ethyl-2,5-dioxo-1-imidazolidinyl]-2-pyridinyl}oxy)benzonitrile] | positive modulators |  |
| CC[C@H]1NC(=O)N(c2ccc(Oc3ccc(C#N)cc3C(C)(C)C)nc2)C1=O [Example 71, 3-(1,1-dimethylethyl)-4-({5-[(4R)-4-ethyl-2,5-dioxo-1-imidazolidinyl]-2-pyridinyl}oxy)benzonitrile] | negative modulators | effect on the value of Tauact compared to the vehicle control (hKv3.2; hKv3.2): markedly increase |
| CC[C@H]1NC(=O)N(c2ccc(Oc3ccc(C#N)c(C4CC4)c3)nc2)C1=O [Example 76, 2-cyclopropyl-4-({5-[(4R)-4-ethyl-2,5-dioxo-1-imidazolidinyl]-2-pyridinyl}oxy)benzonitrile] | positive modulators | Tauact mean (hKv3.2; hKv3.2, step to −15 mV, compound 3.1 μM (concentration giving ~0.3 nA current)): 7.6 ms |
| CC[C@H]1NC(=O)N(c2ccc(Oc3ccc(C#N)c(C(C)C)c3)nc2)C1=O [Example 77, 4-({5-[(4R)-4-ethyl-2,5-dioxo-1-imidazolidinyl]-2-pyridinyl}oxy)-2-(1-methylethyl)benzonitrile] | positive modulators |  |
| CCc1cc(Oc2ccc(N3C(=O)N[C@H](CC)C3=O)cn2)ccc1C#N [Example 78] | positive modulators |  |
| CC[C@H]1NC(=O)N(c2ccc(Oc3ccc(C#N)c(OC(C)C)c3)nc2)C1=O [Example 80, 4-({5-[(4R)-4-ethyl-2,5-dioxo-1-imidazolidinyl]-2-pyridinyl}oxy)-2-[(1-methylethyl)oxy]benzonitrile] | positive modulators |  |
| CC[C@H]1NC(=O)N(c2ccc(Oc3ccc(C#N)c(OC(F)(F)F)c3)nc2)C1=O [Example 82, 4-({5-[(4R)-4-ethyl-2,5-dioxo-1-imidazolidinyl]-2-pyridinyl}oxy)-2-[(trifluoromethyl)oxy]benzonitrile] | positive modulators |  |
| CC[C@H]1NC(=O)N(c2ccc(Oc3cccc4c3C3(CC3)CO4)nc2)C1=O [Example 87, (5R)-5-ethyl-3-[6-(spiro[1-benzofuran-3,1′-cyclopropan]-4-yloxy)-3-pyridinyl]-2,4-imidazolidinedione] | negative modulators | ability of neurons to fire an action potential on each pulse (spike probability) [1]: unable to follow trains at the highest frequency; effect on the value of Tauact compared to the vehicle control (hKv3.2; hKv3.2): markedly increase |
| CC1(C)NC(=O)N(c2ccc(Oc3cccc4c3C3(CC3)CO4)nc2)C1=O [Example 88, 5,5-dimethyl-3-[6-(spiro[1-benzofuran-3,1′-cyclopropan]-4-yloxy)-3-pyridinyl]-2,4-imidazolidinedione] | negative modulators | effect on the value of Tauact compared to the vehicle control (hKv3.2; hKv3.2): markedly increase |
| CC[N+](CC)(CC)CC [TEA, tetraethylammonium, reference compound] |  | maximal frequency of action potential firing in response to step currents [2]: lower maximal frequency; amplitude of outward high voltage-activated potassium currents [3]: significantly reduced |
